The results in this text go back to paper PMC10745659, “Chemical Constituents and α-Glucosidase Inhibitory, Antioxidant and Hepatoprotective Activities of Ampelopsis grossedentata” (Molecules, 2023).

Test [1] in a line: DPPH free radical scavenging assay. Particulars: mean ± SD, n = 4; ascorbic acid positive control. As to the method: The DPPH free radical scavenging capacity of isolated compounds was determined according to a modified method. […] All isolated compounds and positive drug were dissolved and diluted in DMSO and DPPH (2,2-Diphenyl-1-picrylhydrazyl) was dissolved in anhydrous ethanol. Briefly, 190 μL of a working solution of DPPH (0.2 mM) was added to each well. Then, 10 μL of a sample solution of different concentrations (1.6, 1.2, 0.8, 0.4, 0.2, and 0.1 mM) was added, mixed well, and left to incubate in the dark at room temperature for 60 min. After that, the absorbance values of each well were measured at 517 nm using a microplate reader and the results were obtained from a minimum of three independent experiments. Ascorbic acid was used as the positive control. DMSO was used to replace the sample solution as a blank and absolute ethanol was used to replace the DPPH solution as a control.
The percentage free radical scavenging rate (%) of each test sample for DPPH was calculated as:Free radical scavenging rate (%) = [Ablank − (Asample − Acontral)] ÷ Ablank × 100%
A general note: DPPH is a stable violet radical that fades when it is reduced.

The next test has as its system HepG2 cells. The experiment in a line: Hepatoprotective activity, APAP-induced HepG2 cell injury model (CCK-8). The format is cell-based. As to conditions: for hepatoprotective activity (in words): 20 μM, APAP-induced HepG2 cell injury; for viability at 20 µM: Homo sapiens, 20 μM compound, APAP 6 mM, 48 h, HepG2, APAP model 68.24 ± 1.34%, n = 3, mean ± SD. On the procedure: All these parameters were higher than in the preparation of cell viability positive control of 83.01 ± 0.82%.
HepG2 cells were maintained in DMEM medium supplemented with 10% fetal bovine serum, 100 U/mL penicillin G, and 100 μg/mL streptomycin. The cells were seeded in culture flasks and placed in a 5% CO2 incubator at 37 °C for routine cultivation. The hepatoprotective activities of the isolated samples were tested according to the modified method. To evaluate the effect of test samples on cell viability, a CCK-8 assay was performed. The experiment was conducted in 96-well plates, and 100 μL of HepG2 cells in logarithmic growth phase (8 × 10^5 cells/mL) were seeded in each well and cultured for 24 h. After that, samples (final concentration of 20 μM) and acetaminophen (APAP, final concentration of 6 mM) were added at one time to incubate for another 48 h. Then, 10 μL CCK-8 was added to each well and incubated for 1 h, followed by measuring the absorbance at a wavelength of 450 nm using a microplate reader.

Test [2] in a line: FRAP assay (total antioxidant capacity). Particulars: for FRAP Assay: Fe2+ concentration equivalent, sample solution 0.68 mM, mean ± SD, n = 4. On the procedure: The total antioxidant capacity of the samples was measured by the FRAP (ferric reducing ability of plasma) assay, with slight modifications. The acetate buffer (0.3 M, pH 3.6), TPTZ (2,4,6-tris(2-pyridyl)-S-triazine) solution (10 mM) in 40 mM HCl and ferric chloride aqueous solution (10 mM) were uniformly mixed at a volume ratio of 7:1:1 to obtain the FRAP working solution. FRAP working solution was preheated for 10 min in a constant temperature incubator at 37 °C before use. […] Then, 180 μL of FRAP working solution was added to each well, followed by 6 μL of sample solution (0.68 mM), and finally 18 μL of distilled water. Then, the mixture was stirred well and left to react at room temperature for 10 min. The absorbance values of each well were measured at 593 nm using a microplate reader and the results were obtained from at least three independent experiments. The sample solution was replaced with DMSO as a blank solution and ascorbic acid was used as a positive control. Different concentrations of FeSO4·7H2O (0.075–0.00078 μmol/mL) were used to establish the standard curve. The antioxidant capacity of the sample was expressed as the Fe^2+ concentration (μmol/mL) required to achieve the same absorbance change value. The final result was calculated by GraphPad Prism 9.0 software and presented as mean ± standard deviation (SD) of μmol Fe^2+ per milliliter.

The target in a further test is α-glucosidase (Saccharomyces cerevisiae, UniProt P53341). The experiment in a line: α-glucosidase inhibitory assay (p-NPG substrate). The format is biochemical.
A short description of test [3]: ABTS radical cation scavenging assay. As to conditions: mean ± SD, n = 4; ascorbic acid positive control. On the procedure:
The ABTS free radical scavenging capacity of all isolated compounds was measured, the procedure followed a method with minor modifications. […] Equal volumes of ABTS (2,2′-azinobis(3-ethylbenzthiazoline-6-sulphonic acid)) solution (7 mM) and potassium persulfate solution (2.45 mM) were mixed evenly and left to react at room temperature for 12 h in the dark to obtain ABTS radical cation. The mixture was then diluted with anhydrous methanol to achieve an absorbance value of about 0.7 ± 0.02 units at 405 nm. Then, 190 μL of ABTS working solution was added to each well, followed by 10 μL samples of varying concentrations (0.8, 0.4, 0.2, 0.1, 0.05, 0.025, 0.0125, and 0.00625 mM) that were dissolved and diluted with DMSO. After mixing well, the samples were incubated at room temperature for 6 min away from light. The subsequent experimental method is basically consistent with the DPPH assay, the only difference is that ABTS assay detects the absorbance value at 405 nm.
The percentage radical cation scavenging rate (%) of each test sample for ABTS was calculated as follows:Radical cation scavenging rate (%) = [Ablank − (Asample − Acontral)] ÷ Ablank × 100%
The IC50 values were calculated by using GraphPad Prism 9.0 software.

Sequence of α-glucosidase (P53341 whole entry): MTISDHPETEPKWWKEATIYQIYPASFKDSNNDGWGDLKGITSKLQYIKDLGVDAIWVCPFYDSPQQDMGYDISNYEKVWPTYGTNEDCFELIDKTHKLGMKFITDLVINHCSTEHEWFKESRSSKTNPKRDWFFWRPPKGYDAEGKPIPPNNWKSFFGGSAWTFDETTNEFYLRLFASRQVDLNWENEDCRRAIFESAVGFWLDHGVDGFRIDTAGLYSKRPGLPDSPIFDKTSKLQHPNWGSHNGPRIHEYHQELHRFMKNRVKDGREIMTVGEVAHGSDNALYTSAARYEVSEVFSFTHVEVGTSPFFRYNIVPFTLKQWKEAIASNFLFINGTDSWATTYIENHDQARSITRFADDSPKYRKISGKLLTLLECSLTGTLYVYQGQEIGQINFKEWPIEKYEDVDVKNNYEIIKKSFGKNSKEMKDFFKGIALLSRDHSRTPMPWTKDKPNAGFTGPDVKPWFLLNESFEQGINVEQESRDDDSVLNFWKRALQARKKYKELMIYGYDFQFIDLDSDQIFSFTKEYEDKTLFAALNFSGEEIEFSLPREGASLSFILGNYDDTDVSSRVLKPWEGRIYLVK
Protocol for α-glucosidase: The α-glucosidase inhibitory activities of isolated compounds were evaluated by using a method previously described, but with minor modifications [34]. […] Briefly, 98 μL of PBS (0.1 M, pH 6.8) was added to each well. Then, 2 μL of different concentrations of sample solutions and 25 μL of α-glucosidase solution (0.25 U/mL) were added. After shaking and mixing slightly, the 96-well plate was placed in a 37 °C constant-temperature incubator and incubated for 20 min. Next, 25 μL of p-NPG (4 mM) was added to the plate to initiate the reaction, and it was further incubated in a 37 °C constant-temperature incubator for 15 min. Then, 50 μL of Na2CO3 (0.2 M) solution was quickly added to each well to terminate the reaction. The absorbance was measured at 405 nm using a microplate reader, and the results were obtained from a minimum of three independent experiments.

Regarding `C[C@@H]1O[C@@H](Oc2c(-c3ccc(O)c(O)c3)oc3cc(O)cc(O)c3c2=O)[C@H](O)[C@H](O)[C@H]1O` [Compound 18, Quercitrin], the IC50 in test [1] was 63.5 ± 0.97 µM; in test [3] it was 9.96 ± 0.16 µM. Further, the “hepatoprotective activity (in words)” value in the test with HepG2 cells is “essentially inactive”. The “FRAP Assay” value in test [2] amounted to 1.35 ± 0.02 µmol/mL. For the same compound, the “α-glucosidase inhibition (in words)” value on α-glucosidase is recorded as “minimally or not”.

`CC(C)CC(=O)c1c(O)cc(O)cc1O[C@@H]1O[C@H](CO)[C@@H](O)[C@H](O)[C@H]1O` [Compound 16, 2-O-[1-(3-Methylbutyryl)phloroglucin-ol]-β-D-glucopyranoside]: the results for the IC50 in test [1] and in test [3] were above 80 µM and above 20 µM, respectively. Besides, the “FRAP Assay” value in test [2] was determined as 0.24 ± 0.01 µmol/mL.

In the case of `O=C(O[C@H]1C(=O)c2c(cc(O)c(O)c2O)O[C@@H]1c1cc(O)c(O)c(O)c1)c1cc(O)c(O)c(O)c1` [Compound 1, Meichasu A], the IC50 in test [1] was 32.52 ± 0.16 µM; in test [3], 4.43 ± 0.02 µM. For the same compound, the viability at 20 µM in the test on HepG2 cells amounted to 84.93 ± 0.58%. Moreover, the “FRAP Assay” value in test [2] was 1.70 ± 0.00 µmol/mL.

With `O=c1c(O)coc2cc(O)cc(O)c12` [Compound 11, 3,5,7-Trihydroxychromone], the figures for the IC50 in test [1] and in test [3] were above 80 µM and above 20 µM, respectively. Besides, the “FRAP Assay” value in test [2] was 0.15 ± 0.00 µmol/mL.

On to `O=C1CC(c2cc(O)c(O)c(O)c2)Oc2cc(O)cc(O)c21` (stereo not shown) [Compound 17, 5,7,3′,4′,5′-Pentahydroxy flavanone], for which the values for the concentration for half-maximal inhibition (IC50) in test [1] and in test [3] were 43.1 ± 0.94 µM and 10.2 ± 0.13 µM, respectively. The “FRAP Assay” value in test [2] was 1.18 ± 0.01 µmol/mL.

On to `O=c1c(O)c(-c2ccc(O)c(O)c2)oc2cc(O)cc(O)c12` [Compound 4, Quercetin], for which the IC50 in test [1] is 25.5 ± 0.63 µM; in test [3], 2.76 ± 0.04 µM. The compound also yielded a viability at 20 µM in the test on HepG2 cells of 84.9 ± 1.21%. For the same compound, the “FRAP Assay” value in test [2] was 2.67 ± 0.01 µmol/mL.

For Myricitrin [Compound 13], the 50% inhibitory concentration (IC50) in test [1] was 35.03 ± 0.28 µM; in test [3], 6.88 ± 0.13 µM. Also, the “FRAP Assay” value in test [2] turned out to be 1.69 ± 0.02 µmol/mL. On α-glucosidase, the “α-glucosidase inhibition (in words)” value is “minimally or not”.

As for `O=C1c2c(O)cc(O)cc2OC(c2ccc(O)c(O)c2)C1O` (stereo not shown) [Compound 12, Taxifolin], the results for the IC50 in test [1] and in test [3] were 39.21 ± 0.18 µM and 7.36 ± 0.08 µM, respectively. In addition, in the test with HepG2 cells, the viability at 20 µM came out at 85.4 ± 1.22%. Also, the “FRAP Assay” value in test [2] worked out at 1.32 ± 0.01 µmol/mL.

lunularin [Compound 9]: the IC50 was above 80 µM in test [1]; 9.42 ± 0.51 µM at α-glucosidase (mean ± SD, n = 4, acarbose positive control); above 20 µM in test [3]. Moreover, in test [2], the “FRAP Assay” value was 0.09 ± 0.00 µmol/mL.

With `O=c1c(O)c(-c2ccc(O)cc2)oc2cc(O)cc(O)c12` [Compound 7, Kaempferol], the IC50 in test [1] was above 80 µM; in test [3], 19.9 ± 0.46 µM. The same compound returned a viability at 20 µM in the test with HepG2 cells of 87.08 ± 0.6%. Moreover, the “FRAP Assay” value in test [2] amounted to 0.85 ± 0.01 µmol/mL.

Turning to `O=C1c2c(O)cc(O)cc2O[C@H](c2cc(O)c(O)c(O)c2)[C@H]1O` [Compound 3, (2R,3R)-Dihydromyricetin], the IC50 in test [1] turned out to be 28.3 ± 0.38 µM; in test [3], 5.91 ± 0.11 µM. For the same compound, the “hepatoprotective activity (in words)” value in the test with HepG2 cells is “moderate hepatoprotective activities”. In addition, the “FRAP Assay” value in test [2] was determined as 1.71 ± 0.01 µmol/mL.

In the case of `C[C@@H]1O[C@@H](Oc2c(-c3ccc(O)c(O)c3)oc3c(O)c(O)c(O)c(O)c3c2=O)[C@H](O)[C@H](O)[C@H]1O` [Compound 2, Meichasu B], the IC50 in test [1] is 44.4 ± 0.63 µM; in test [3], 6.73 ± 0.03 µM. Further, in the test with HepG2 cells, the viability at 20 µM is 88.46 ± 0.63%. In addition, the “FRAP Assay” value in test [2] is 1.96 ± 0.01 µmol/mL.

As for `O=C(O)c1c(O)cccc1CCc1ccc(O)cc1` [Compound 8, lunularic acid], the IC50 in test [1] is above 80 µM; in test [3], above 20 µM. For the same compound, the “FRAP Assay” value in test [2] was found to be 0.13 ± 0.01 µmol/mL.

In the case of `C[C@@H]1O[C@@H](Oc2c(-c3ccc(O)cc3)oc3cc(O)cc(O)c3c2=O)[C@H](O)[C@H](O)[C@H]1O` [Compound 14, Afzelin], the IC50 in test [1] was above 80 µM; in test [3] it was above 20 µM. In the test with HepG2 cells, the “hepatoprotective activity (in words)” value was “essentially inactive”. Also, in test [2], the “FRAP Assay” value was found to be 0.07 ± 0.00 µmol/mL.

Turning to `O=c1c(O)c(-c2cc(O)c(O)c(O)c2)oc2cc(O)cc(O)c12` [Compound 5, Myricetin], the values for the IC50 in test [1] and in test [3] were 29.8 ± 0.59 µM and 3.39 ± 0.07 µM, respectively. For the same compound, the “hepatoprotective activity (in words)” value with HepG2 cells is given as “moderate hepatoprotective activities”. Moreover, the “FRAP Assay” value in test [2] worked out at 1.72 ± 0.01 µmol/mL.

For the compound `O=C1c2c(O)cc(O)cc2O[C@@H](c2cc(O)c(O)c(O)c2)[C@@H]1O` [Compound 10, (2S,3S)-Dihydromyricetin], the IC50 worked out at 43.5 ± 0.36 µM in test [1] and 5.01 ± 0.11 µM in test [3]. Besides, in test [2], the “FRAP Assay” value is 1.43 ± 0.01 µmol/mL.

For `COC(=O)c1cc(OC)c2c(c1-c1c(CO)cc(OC)c3c1OCO3)OCO2` [bicyclol, reference compound], in the test on HepG2 cells, the viability at 20 µM turned out to be 83.01 ± 0.82%.

On to `O=C(CCc1ccc(O)cc1)c1c(O)cc(O)cc1O[C@@H]1O[C@H](CO)[C@@H](O)[C@H](O)[C@H]1O` [Compound 15, Phloridzin], for which the 50% inhibitory concentration (IC50) was above 80 µM in test [1] and above 20 µM in test [3]. Moreover, in test [2], the “FRAP Assay” value was 0.17 ± 0.01 µmol/mL. The “α-glucosidase inhibition (in words)” value on α-glucosidase is on record as “minimally or not”.

Consider `O=C(O[C@H]1C(=O)c2c(O)cc(O)cc2O[C@@H]1c1cc(O)c(O)c(O)c1)c1cc(O)c(O)c(O)c1` [Compound 19, (2R,3R)-3,4-Dihydro-5,7-dihydroxy-4-oxo-2-(3,4,5-trihydroxyphenyl)-2H-1-benzopyran-3-yl 3,4,5-trihydroxybenzoate], for which, in test [1], the IC50 was 17.3 ± 0.31 µM. In test [2], the FRAP value turned out to be 2.79 µmol/mL and the “FRAP Assay” value is 2.79 ± 0.01 µmol/mL. Moreover, in test [3], the IC50 worked out at 2.19 ± 0.01 µM.

Regarding `O=C1C[C@@H](c2ccc(O)cc2)Oc2cc(O)cc(O)c21` [Compound 6, Naringenin], the results for the IC50 in test [1] and in test [3] were above 80 µM and above 20 µM, respectively. In addition, the viability at 20 µM in the test with HepG2 cells was 83.7 ± 0.67%. Moreover, the “FRAP Assay” value in test [2] was 0.07 ± 0.00 µmol/mL.

With `O=C1O[C@H]([C@@H](O)CO)C(O)=C1O` [ascorbic acid, reference compound], the IC50 was found to be 77.9 ± 0.87 µM in test [1] and 19 ± 0.31 µM in test [3]. Moreover, the “FRAP Assay” value in test [2] was found to be 0.57 ± 0.01 µmol/mL.

In general, IC50 refers to the concentration needed to halve the response being measured. Low readings indicate greater potency, high ones weaker potency. For orientation: viability means a per cent measure of how many cells are alive, often set against a control. Read a low viability as more harm to the cells.
